Reference: publication PMC11274883, “Anticancer Effect of Pt^[sequence], Pt^II5MESS, Pt^II56MESS and Their Platinum(IV)-Dihydroxy Derivatives against Triple-Negative Breast Cancer and Cisplatin-Resistant Colorectal Cancer” (Cancers, 2024)

Columns and labels:
Type in all cases: cell-based
[1] = test system: MCF10A; experiment: WST-1 cytotoxicity, 72 h; details: mean ± SEM
Method in brief: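 Cells seeded at 1000 per well, with WST-1 added after 72 h and absorbance read at 450 nm 1 h later. Apparent IC50 from a nonlinear fit of % survival versus log concentration; three separate experiments, each n = 3.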

[2] = test system: ADDP; experiment: WST-1 cytotoxicity, 72 h
Method in brief: (§1)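 Cells were seeded at 1000 per well and exposed to compound for 72 h. Viability was then read with WST-1 (1 h, absorbance at 450 nm). Apparent IC50 values came from nonlinear regression of % survival across three experiments, each with n = 3.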

[3] = test system: MCF−7; experiment: WST-1 cytotoxicity, 72 h
Method in brief: as §1

[4] = test system: A2780; experiment: WST-1 cytotoxicity, 72 h
Method in brief: as §1

[5] = test system: HT29; experiment: WST-1 cytotoxicity, 72 h
Method in brief: as §1

[6] = test system: MDA−MB−231; experiment: WST-1 cytotoxicity, 72 h
Method in brief: as §1

[7] = test system: MDA−MB−231 cells; experiment: Western blot protein expression; details: MDA−MB−231, IC50, 72 h
Method in brief: (§2)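 Cells were lysed in RIPA buffer with orthovanadate, and 20 µg protein was run on SDS-PAGE, transferred to PVDF and probed for proliferation, apoptosis, microtubule and autophagy markers. ECL band intensities were normalised to GAPDH and then to untreated control. Three independent experiments were run per marker.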

[8] = test system: HT29 cells; experiment: Western blot protein expression; details: HT29, IC50, 72 h
Method in brief: as §2

[9] = representative blot Figure S30G
[10] = representative blot Figure S30H

## N[C@H]1CCCC[C@@H]1N.O=[N+]([O-])[O-].O=[N+]([O-])[O-].[Pt+2].c1cnc2c(c1)ccc1cccnc12 [[Pt(1,10-phenanthroline)(1S,2S-diaminocyclohexane)](NO3)2]
[1]
  IC50: 3.49 ± 1.39 µM
[2]; ADDP, 72 h
  potency relative to cisplatin: 44 fold
[2]; ADDP, 72 h, mean ± SEM
  IC50: 2550 ± 1480 nM
[2]; IC50 MCF10A/IC50 ADDP
  Selective cytotoxicity index (SCI): 1.37
[3]; IC50 MCF10A/IC50 MCF−7
  Selective cytotoxicity index (SCI): 1.91
[3]; MCF−7, 72 h
  potency relative to cisplatin: 18 fold
[3]; MCF−7, 72 h, mean ± SEM
  IC50: 1830 ± 2120 nM
[4]; A2780, 72 h
  potency relative to cisplatin: 19 fold
[4]; A2780, 72 h, mean ± SEM
  IC50: 1110 ± 1880 nM
[4]; IC50 MCF10A/IC50 A2780
  Selective cytotoxicity index (SCI): 3.14
[5]; HT29, 72 h
  potency relative to cisplatin: 102 fold
[5]; HT29, 72 h, mean ± SEM
  IC50: 760 ± 1470 nM
[5]; IC50 MCF10A/IC50 HT29
  Selective cytotoxicity index (SCI): 4.59
[6]; IC50 MCF10A/IC50 MDA−MB−231
  Selective cytotoxicity index (SCI): 3.45
[6]; MDA−MB−231, 72 h
  potency relative to cisplatin: 13 fold
[6]; MDA−MB−231, 72 h, mean ± SEM
  IC50: 1010 ± 1360 nM
[7]; representative blot Figure S24A
  β-actin/GAPDH normalized to control (1): 0.4744
[7]; representative blot Figure S24B
  β-tubulin/GAPDH normalized to control (1): 1.15
[7]; representative blot Figure S24C
  α-tubulin/GAPDH normalized to control (1): 0.9355
[7]; representative blot Figure S25A
  p-AKT/AKT/GAPDH normalized to control (1): 0.6042
[7]; representative blot Figure S25B
  p-ERK/ERK/GAPDH normalized to control (1): 0.6771
[7]; representative blot Figure S25C
  p53/GAPDH normalized to control (1): 1.105
[7]; representative blot Figure S25D
  p21/GAPDH normalized to control (1): 1.812
[7]; representative blot Figure S26A
  Bax/GAPDH normalized to control (1): 1.161
[7]; representative blot Figure S26B
  Bcl2/GAPDH normalized to control (1): 0.8361
[7]; representative blot Figure S26C
  Cytochrome C/GAPDH normalized to control (1): 1.827
[7]; representative blot Figure S26D
  Procaspase 8/GAPDH normalized to control (1): 0.5195
[7]; representative blot Figure S26E
  Cleaved BID/GAPDH normalized to control (1): 13.39
[7]; representative blot Figure S26F
  Procaspase 9/GAPDH normalized to control (1): 0.2042
[7]; representative blot Figure S26G
  Procaspase 3/GAPDH normalized to control (1): 0.3207
[7]; representative blot Figure S26H
  PARP-1/GAPDH normalized to control (1): 0.7775
[7]; representative blot Figure S27A
  Beclin1/GAPDH normalized to control (1): 1.911
[7]; representative blot Figure S27B
  ATG5/GAPDH normalized to control (1): 0.7762
[7]; representative blot Figure S27C
  ATG16L1/GAPDH normalized to control (1): 0.6758
[7]; representative blot Figure S27D
  ATG9A/GAPDH normalized to control (1): 0.361
[7]; representative blot Figure S27E
  ATG4B/GAPDH normalized to control (1): 1.546
[7]; representative blot Figure S27F
  LC3B/GAPDH normalized to control (1): 0.9969
[8]; representative blot Figure S28A
  β-actin/GAPDH normalized to control (1): 0.1267
[8]; representative blot Figure S28B
  β-tubulin/GAPDH normalized to control (1): 0.232
[8]; representative blot Figure S28C
  α-tubulin/GAPDH normalized to control (1): 0.09086
[8]; representative blot Figure S29A
  p-AKT/AKT/GAPDH normalized to control (1): 0.09219
[8]; representative blot Figure S29B
  p-ERK/ERK/GAPDH normalized to control (1): 0.9509
[8]; representative blot Figure S29C
  p53/GAPDH normalized to control (1): 4.791
[8]; representative blot Figure S29D
  p21/GAPDH normalized to control (1): 3.18
[8]; representative blot Figure S30A
  Bax/GAPDH normalized to control (1): 3.407
[8]; representative blot Figure S30B
  Bcl2/GAPDH normalized to control (1): 0.2872
[8]; representative blot Figure S30C
  Cyt C/GAPDH normalized to control (1): 1.692
[8]; representative blot Figure S30D
  Procaspase 8/GAPDH normalized to control (1): 0.1633
[8]; representative blot Figure S30E
  Cleaved BID/GAPDH normalized to control (1): 1.611
[8]; representative blot Figure S30F
  Procaspase 9/GAPDH normalized to control (1): 0.1981
[8]; [9]
  Cleaved caspase 3/GAPDH normalized to control (1): 17.46
  Procaspase 3/GAPDH normalized to control (1): 0.4874
[8]; [10]
  Cleaved PARP-1/GAPDH normalized to control (1): 8.496
  PARP-1/GAPDH normalized to control (1): 0.2612
[8]; representative blot Figure S31A
  Beclin1/GAPDH normalized to control (1): 5.324
[8]; representative blot Figure S31B
  ATG5/GAPDH normalized to control (1): 0.9428
[8]; representative blot Figure S31C
  ATG16L1/GAPDH normalized to control (1): 3.844
[8]; representative blot Figure S31D
  ATG9A/GAPDH normalized to control (1): 0.465
[8]; representative blot Figure S31E
  ATG4B/GAPDH normalized to control (1): 0.6844
[8]; representative blot Figure S31F
  LC3B/GAPDH normalized to control (1): 2.121
